Consider eleven compounds from PubChem BioAssay (NCI).

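Tested at 5 concentrations; 48 h exposure; 96-well plates; endpoints linearly interpolated, else capped at highest concentration. At the GI50, growth is halved. At the TGI there is no net growth.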

Common to all, as to assay: NCI-60 cell line screen, 48 h
The test system of assay [1] is K-562 leukemia.
Assay [2] relates to UACC-257 melanoma.
The test system of assay [3] is CAKI-1 renal.
For assay [4], the system named is SF-268 CNS.
Assay [5] concerns SK-MEL-2 melanoma.
Assay [6] deals with LOX IMVI melanoma.
The test system of assay [7] is OVCAR-8 ovarian.
Assay [8] has as its system CCRF-CEM leukemia.
In assay [9] the test system is HCT-15 colon.
Assay [10] has as its system UACC-62 melanoma.

As to `OC(c1cc2ccccc2[nH]1)C(O)(c1cc2ccccc2[nH]1)c1cc2ccccc2[nH]1` (centres undefined), the TGI in [1] is above 245 µM; in assay [2] it was 64.6 µM; in assay [3], 51.9 µM; in [4], 85.2 µM; in assay [5], 50 µM; in assay [6], 41.8 µM. Besides, the TGI in assay [7] is 75 µM; in assay [8], above 245 µM; in assay [9], 33 µM; in assay [10] it was 23.2 µM.
With `CON1C(=O)C2(CCCCC2)C(=O)C12C=CC(C)CC2` (centres undefined), the TGI in assay [1], in assay [2], in [3], in assay [4], in assay [5] and in [6] was above 100 µM throughout. In addition, the TGI in [7], in assay [8], in [9] and in assay [10] was above 100 µM each time.
For the compound `CCOc1ccc(Nc2ccnc3cc(Cl)ccc23)cc1`, the GI50 in assay [1] is 32.3 µM; in assay [2], above 100 µM; in assay [3] it was above 100 µM; in assay [4], 57 µM; in [5], above 100 µM; in [6] it was 41.9 µM. In addition, the GI50 in [7] is 79.9 µM; in assay [8], above 100 µM; in assay [9], 4.38 µM; in assay [10], above 100 µM. Further, the TGI in assay [1], in [2], in assay [3], in assay [4], in assay [5] and in assay [6] was above 100 µM throughout. Also, the TGI in assay [7], in assay [8], in assay [9] and in assay [10] was above 100 µM in each case.
Turning to `N#Cc1c(N)c(C(=O)c2ccc3c(c2)OCCO3)n2c1CCCC2`, the GI50 in [1] is 0.638 µM; in assay [3], 3.18 µM; in assay [4], 7.46 µM; in assay [5], 4.06 µM; in [6], 6.92 µM; in assay [7] it was 4.21 µM. Moreover, the figures for the GI50 in assay [8], in [9] and in assay [10] were 3.15 µM, 1.04 µM and 5.99 µM, respectively. For the same compound, the TGI in [1], in assay [3], in assay [4], in [5], in assay [6] and in assay [7] was above 100 µM throughout. Moreover, the TGI in [8], in [9] and in assay [10] was above 100 µM in each case.
For the compound `CC(=O)N(N=O)c1ccc(N(N=O)C(C)=O)cc1`, the TGI in assay [1], in [3], in assay [4], in [5], in assay [6] and in assay [7] was above 100 µM throughout. Moreover, the TGI in [8], in [9] and in assay [10] was above 100 µM in each case.
`CC1CCCc2c1n[nH]c2CC1CC(=O)NC(=O)C1` (centres undefined): the TGI in [1], in assay [2], in [3], in [4], in assay [6] and in assay [7] was above 100 µM in each case. Moreover, the TGI in assay [8], in assay [9] and in assay [10] was above 100 µM throughout.
In the case of `CCCCCCCCCCNC(=S)OC`, the TGI was above 100 µM in [1]; 83.8 µM in assay [2]; above 100 µM in assay [3]; above 100 µM in assay [4]; 39.6 µM in assay [6]; above 100 µM in [7]. The TGI is above 100 µM in assay [8], 86.7 µM in [9] and 65 µM in assay [10].
On to `Oc1ccc(O)c(-n2cccn2)c1`, for which the TGI in assay [1] was 64.3 µM; in [3], 33.3 µM; in [4], above 100 µM; in assay [5], 95.7 µM; in assay [6], above 100 µM; in [7], above 100 µM. The TGI was 57 µM in [8], above 100 µM in [9] and above 100 µM in [10].
For the compound `CCCC[C@H](CCc1ccccc1)N(C(=O)OC)N1CCC[C@H]1COC`, the TGI in assay [1] is 61.2 µM; in assay [2], 36.2 µM; in [3], above 100 µM; in assay [4] it was 43 µM; in assay [5], 34.1 µM; in assay [6], 34.9 µM. For the same compound, the TGI turned out to be 71.5 µM in assay [7], 31.3 µM in assay [8] and 30.9 µM in assay [10].
For `C=C(C)[C@@H]1C/C=C(/COC(C)=O)CC[C@H]2O[C@@]2(C)CC/C=C(\C)CC1`, the GI50 is 21.4 µM in [1]; above 100 µM in [3]; above 100 µM in assay [4]; above 100 µM in assay [5]; 20.3 µM in assay [6]; above 100 µM in assay [7]. Further, the values for the GI50 in assay [8], in [9] and in assay [10] were 26.9 µM, above 100 µM and above 100 µM, respectively. For the same compound, the TGI in [1] was 45.1 µM; in [3] it was above 100 µM; in assay [4], above 100 µM; in assay [5], above 100 µM; in assay [6], 46.5 µM; in [7], above 100 µM. For the same compound, the TGI in assay [8] was 54.8 µM; in [9], above 100 µM; in assay [10], above 100 µM.
Consider `O=C(N/N=C/c1ccc([N+](=O)[O-])cc1)c1ccccc1Nc1ccnc(C(F)(F)F)c1`, for which the GI50 was 11 µM in [1]; 11.6 µM in assay [2]; 13.5 µM in assay [3]; 10.5 µM in assay [4]; 19.8 µM in [6]; 11.6 µM in assay [7]. Besides, the GI50 in [8] is above 100 µM; in [9], 3.8 µM; in assay [10], 13.3 µM. Moreover, the TGI in assay [1] was above 100 µM; in assay [2], 37.9 µM; in assay [3], 36.4 µM; in assay [4], 82.8 µM; in assay [6], above 100 µM; in assay [7] it was 49.8 µM. Moreover, the values for the TGI in assay [8], in assay [9] and in assay [10] were above 100 µM, above 100 µM and 38.3 µM, respectively.
